Experimental data as given in PMC7093416, “Selective USP7 inhibition elicits cancer cell killing through a p53-dependent mechanism” (Scientific Reports, 2020).

Test system: panel of 484 cancer cell lines
Test: PRISM cancer cell line profiling, 5 days
Type: cell-based
Set-up: AUC: unit not given beside the values
Procedure: Cancer cell line profiling was performed using the Broad’s PRISM platform. Cell treatment and data analysis were performed as described in Yu et al[42]. Raw Luminex signal was converted to AUC values for each cell line as described. The resulting AUC profile for each compound was modeled against DepMap using the limma package in R[71]. Because hotspot mutation analysis was performed against DepMap, TP53 annotations in Fig. 6c,d are directly from DepMap.

CN1CCN(CCC(=O)Nc2ccc3c(=O)n(CC4(O)CCN(C(=O)[C@@H](CCCNC(=O)c5ccc6c(Cl)c7c(nc6c5)CCCC7)Cc5ccccc5)CC4)cnc3c2)CC1 [XL177A]
AUC (HCC1438_LUNG): 0.7615
AUC (HCC1588_LUNG): 1.23
AUC (HCC1806_BREAST): 0.9812
AUC (HCC1937_BREAST): 1.015
AUC (HCC4006_LUNG): 0.9625
AUC (HCT15_LARGE_INTESTINE): 1.19
AUC (HCT116_LARGE_INTESTINE): 0.9421
AUC (HDQP1_BREAST): 0.9973
AUC (HEC1A_ENDOMETRIUM): 1.131
AUC (HEC1B_ENDOMETRIUM): 0.9267
AUC (HEC6_ENDOMETRIUM): 0.9564
AUC (HEC59_ENDOMETRIUM): 1.149
AUC (HEC108_ENDOMETRIUM): 0.8058
AUC (HEC151_ENDOMETRIUM): 0.7769
AUC (HEC251_ENDOMETRIUM): 0.792
AUC (HEC265_ENDOMETRIUM): 0.8327
AUC (HEP3B217_LIVER): 1.13
AUC (HEYA8_OVARY): 0.9929
AUC (HGC27_STOMACH): 1.014
AUC (HLF_LIVER): 1.111
AUC (HMC18_BREAST): 0.9153
AUC (HOS_BONE): 1.0422
AUC (HPAC_PANCREAS): 1.477
AUC (HS294T_SKIN): 0.8762
AUC (HS618T_LUNG): 0.9543
AUC (HS729_SOFT_TISSUE): 0.9806
AUC (HS766T_PANCREAS): 0.877
AUC (HS852T_SKIN): 1.359
AUC (HS939T_SKIN): 1.069
AUC (HS944T_SKIN): 1.047
AUC (HSC2_UPPER_AERODIGESTIVE_TRACT): 0.968
AUC (HSC3_UPPER_AERODIGESTIVE_TRACT): 0.8381
AUC (HT29_LARGE_INTESTINE): 1.3
AUC (HT55_LARGE_INTESTINE): 1.168
AUC (HT144_SKIN): 1.076
AUC (HT1080_SOFT_TISSUE): 1.011
AUC (HT1376_URINARY_TRACT): 1.127
AUC (HUCCT1_BILIARY_TRACT): 0.9724
AUC (HUH6_LIVER): 0.8768
AUC (HUH7_LIVER): 1.027
AUC (HUH28_BILIARY_TRACT): 1.165
AUC (HUPT3_PANCREAS): 1.003
AUC (IALM_LUNG): 0.9313
AUC (IGR1_SKIN): 0.998
AUC (IGR37_SKIN): 0.9905
AUC (IGROV1_OVARY): 0.7266
AUC (IM95_STOMACH): 0.6846
AUC (IPC298_SKIN): 0.897
AUC (ISHIKAWAHERAKLIO02ER_ENDOMETRIUM): 1.0984
AUC (ISTMES1_PLEURA): 0.9912
AUC (ISTMES2_PLEURA): 1.073
AUC (J82_URINARY_TRACT): 1.012
AUC (JHH1_LIVER): 0.7875
AUC (JHH4_LIVER): 1.303
AUC (JHH5_LIVER): 1.313
AUC (JHH6_LIVER): 1.146
AUC (JHH7_LIVER): 1.089
AUC (JHOC5_OVARY): 0.9299
AUC (JHOM1_OVARY): 1.1
AUC (JHOS2_OVARY): 1.084
AUC (JHUEM2_ENDOMETRIUM): 0.6526
AUC (JIMT1_BREAST): 0.9668
AUC (JMSU1_URINARY_TRACT): 1.405
AUC (K029AX_SKIN): 0.9501
AUC (KALS1_CENTRAL_NERVOUS_SYSTEM): 0.9126
AUC (KELLY_AUTONOMIC_GANGLIA): 1.086
AUC (KMBC2_URINARY_TRACT): 0.7761
AUC (KMRC1_KIDNEY): 1.1591
AUC (KMRC3_KIDNEY): 1.033
AUC (KMRC20_KIDNEY): 1.2
AUC (KNS42_CENTRAL_NERVOUS_SYSTEM): 1.183
AUC (KNS60_CENTRAL_NERVOUS_SYSTEM): 1.16
AUC (KNS62_LUNG): 0.8251
AUC (KNS81_CENTRAL_NERVOUS_SYSTEM): 0.9475
AUC (KP2_PANCREAS): 1.066
AUC (KP3_PANCREAS): 1.01
AUC (KP4_PANCREAS): 0.8954
AUC (KPL1_BREAST): 0.9211
AUC (KU1919_URINARY_TRACT): 0.8697
AUC (KYSE30_OESOPHAGUS): 0.8748
AUC (KYSE70_OESOPHAGUS): 0.8646
AUC (KYSE140_OESOPHAGUS): 1.147
AUC (KYSE150_OESOPHAGUS): 0.9935
AUC (KYSE180_OESOPHAGUS): 1.01
AUC (KYSE270_OESOPHAGUS): 0.9741
AUC (KYSE410_OESOPHAGUS): 1.031
AUC (KYSE510_OESOPHAGUS): 0.9351
AUC (KYSE520_OESOPHAGUS): 0.8676
AUC (L33_PANCREAS): 1.236
AUC (LC1SQSF_LUNG): 1.124
AUC (LCLC103H_LUNG): 1.104
AUC (LI7_LIVER): 1.1644
AUC (LK2_LUNG): 1.455
AUC (LMSU_STOMACH): 0.9257
AUC (LN18_CENTRAL_NERVOUS_SYSTEM): 0.8921
AUC (LN229_CENTRAL_NERVOUS_SYSTEM): 1.185
AUC (LNCAPCLONEFGC_PROSTATE): 0.7244
AUC (LOUNH91_LUNG): 1.175
AUC (LOVO_LARGE_INTESTINE): 1.153
AUC (LOXIMVI_SKIN): 0.9286
AUC (LS180_LARGE_INTESTINE): 0.8962
AUC (LS411N_LARGE_INTESTINE): 1.328
AUC (LS513_LARGE_INTESTINE): 1.158
AUC (LS1034_LARGE_INTESTINE): 1.385
AUC (LU99_LUNG): 0.9975
AUC (LUDLU1_LUNG): 1.119
AUC (LXF289_LUNG): 0.9272
AUC (MALME3M_SKIN): 0.9568
AUC (MCAS_OVARY): 0.987
AUC (MCF7_BREAST): 0.9375
AUC (MDAMB175VII_BREAST): 1.118
AUC (MDAMB231_BREAST): 0.9911
AUC (MDAMB435S_SKIN): 0.9274
AUC (MDAMB436_BREAST): 0.9312
AUC (MDAMB468_BREAST): 0.902
AUC (MELHO_SKIN): 0.9951
AUC (MELJUSO_SKIN): 0.9827
AUC (MESSA_SOFT_TISSUE): 0.5444
AUC (MEWO_SKIN): 0.9674
AUC (MFE280_ENDOMETRIUM): 1.202
AUC (MFE296_ENDOMETRIUM): 1.106
AUC (MFE319_ENDOMETRIUM): 1.097
